Assay results published in patent publication US6552080B1, “Fungicidal compounds having a fluorovinyl-or fluoropropenyl-oxyphenyloxime moiety and process for the preparation thereof” (Korea Research Institute of Chemical Technology, priority 1999, dated 2003).
Like-named read-outs stand apart in the source and are kept apart here.

Columns and labels:
[1] = system: Pyricularia oryzae Carvara KA301; format: in vivo; settings: Rice Blast
Botrytis cinerae = experiment: Fungicidal activity against Cucumber Gray Mold Rot (CGM) disease; format: in vivo; settings: Cucumber Gray Mold Rot; concentration 50 ppm
Phytophthora infestans = format: in vivo; settings: Tomato Late Blight
Puccinia recondita = experiment: Fungicidal activity against Wheat Leaf Rust (WLR) disease; format: in vivo; settings: Wheat Leaf Rust
Erysiphae graminis = experiment: Fungicidal activity against Barley Powdery Mildew (BPM) disease; format: in vivo; settings: Barley Powdery Mildew
Rhizoctonia solani AG-1 = experiment: Fungicidal activity against Rice Sheath Blight (RSB) disease; settings: Rice Sheath Blight

Row | SMILES | RCV (Fungicidal Activities, C.V.) ([1]; concentration 2 ppm) [%] | RCV (Fungicidal Activities, C.V.) ([1]; concentration 10 ppm) [%] | RCV (Fungicidal Activities, C.V.) ([1]; concentration 50 ppm) [%] | CGM (Fungicidal Activities, C.V.) (Botrytis cinerae) [%] | TLB (Fungicidal Activities, C.V.) (Phytophthora infestans; concentration 50 ppm) [%] | WLR (Fungicidal Activities, C.V.) (Puccinia recondita; concentration 2 ppm) [%] | WLR (Fungicidal Activities, C.V.) (Puccinia recondita; concentration 10 ppm) [%] | WLR (Fungicidal Activities, C.V.) (Puccinia recondita; concentration 50 ppm) [%] | BPM (Fungicidal Activities, C.V.) (Erysiphae graminis; concentration 2 ppm) [%] | BPM (Fungicidal Activities, C.V.) (Erysiphae graminis; concentration 10 ppm) [%] | BPM (Fungicidal Activities, C.V.) (Erysiphae graminis; concentration 50 ppm) [%] | RSB (Fungicidal Activities, C.V.) (Rhizoctonia solani AG-1; concentration 50 ppm) [%] | TLB (Fungicidal Activities, C.V.) (Phytophthora infestans; concentration 2 ppm) [%] | TLB (Fungicidal Activities, C.V.) (Phytophthora infestans; concentration 10 ppm) [%] | RSB (Fungicidal Activities, C.V.) (Rhizoctonia solani AG-1; concentration 2 ppm) [%] | RSB (Fungicidal Activities, C.V.) (Rhizoctonia solani AG-1; concentration 10 ppm) [%]
1 | COC=C(C(=O)OC)c1ccccc1CON=C(C)c1cccc(OC(F)=Cc2ccc3ccccc3c2)c1 [Compound 56] | 25 | 80 | 95 | 5 | 57 | 95 | 100 | 100 | 100 | 100 | 100 | 70 | – | – | – | –
2 | CNC(=O)C(=COC)c1ccccc1CON=C(C)c1cccc(OC(F)=Cc2ccc(C)cc2)c1 [Compound 57] | 95 | – | 99 | 8 | 0 | 27 | – | 98 | 0 | – | 98 | 47 | – | – | – | –
3 | CNC(=O)C(=COC)c1ccccc1CON=C(C)c1cccc(OC(F)=Cc2cc(C)cc(C)c2)c1 [Compound 58] | – | – | 100 | 8 | 0 | – | – | 98 | – | – | 98 | 23 | – | – | – | –
4 | CCc1ccc(C=C(F)Oc2cccc(C(C)=NOCc3ccccc3C(=COC)C(=O)NC)c2)cc1 [Compound 59] | – | – | 100 | 0 | 0 | – | – | 73 | – | – | 91 | 47 | – | – | – | –
5 | CNC(=O)C(=COC)c1ccccc1CON=C(C)c1cccc(OC(F)=Cc2ccc(OC)cc2)c1 [Compound 60] | – | – | 100 | 8 | 0 | – | – | 66 | – | – | 100 | 29 | – | – | – | –
6 | CNC(=O)C(=COC)c1ccccc1CON=C(C)c1cccc(OC(F)=Cc2ccc(Cl)c(C)c2)c1 [Compound 61] | – | – | 91 | 33 | 0 | – | – | 43 | – | – | 86 | 23 | – | – | – | –
7 | CNC(=O)C(=COC)c1ccccc1CON=C(C)c1cccc(OC(F)=Cc2cccc(Cl)c2)c1 [Compound 62] | 92 | – | 96 | 25 | 0 | 83 | – | 99 | 0 | – | 100 | 0 | – | – | – | –
8 | CNC(=O)C(=COC)c1ccccc1CON=C(C)c1cccc(OC(F)=Cc2ccc3c(c2)OCO3)c1 [Compound 63] | – | – | 96 | 33 | 0 | – | – | 90 | – | – | 97 | 11 | – | – | – | –
9 | CO/N=C(/C(=O)OC)c1ccccc1CON=C(C)c1cccc(OC(F)=Cc2ccccc2)c1 [Compound 64] | 100 | 100 | 100 | 75 | 95 | 99 | 100 | 100 | 100 | 100 | 100 | 85 | 87 | 90 | 45 | 65
10 | CON=C(C(=O)OC)c1ccccc1CON=C(C)c1cccc(OC(F)=Cc2cccc(C)c2)c1 [Compound 65] | 100 | 100 | 100 | 71 | 0 | 99 | 100 | 100 | 99 | 100 | 100 | 100 | – | – | 30 | 60
11 | CON=C(C(=O)OC)c1ccccc1CON=C(C)c1cccc(OC(F)=Cc2ccc(C)cc2)c1 [Compound 66] | 100 | 100 | 100 | 75 | 0 | 99 | 100 | 100 | 100 | 100 | 100 | 100 | – | – | 20 | 65
12 | CON=C(C(=O)OC)c1ccccc1CON=C(C)c1cccc(OC(F)=Cc2ccc(C)c(C)c2)c1 [Compound 67] | 100 | 100 | 100 | 37 | 0 | 99 | 100 | 100 | 99 | 100 | 100 | 100 | – | – | 10 | 43
13 | CON=C(C(=O)OC)c1ccccc1CON=C(C)c1cccc(OC(F)=Cc2cc(C)cc(C)c2)c1 [Compound 68] | 100 | 100 | 100 | 56 | 20 | 99 | 100 | 100 | 100 | 100 | 100 | 100 | – | – | 30 | 70
14 | CCc1ccc(C=C(F)Oc2cccc(C(C)=NOCc3ccccc3C(=NOC)C(=O)OC)c2)cc1 [Compound 69] | 100 | – | 100 | 25 | 60 | 97 | – | 100 | 99 | – | 100 | 100 | 25 | – | 30 | –
